How the values were obtained:
Design in all cases: MIC Alone: unit not given beside the values
Conditions in all cases: antimycotic agent alone
[1] = system: C. albicans
[2] = system: Cryptococcus
[3] = system: Blastomyces dermatitidis

SMILES | MLC Alone [1] | MIC Alone [2] | MIC Alone [3] | MIC Alone [1] | MLC Alone [2] | MLC Alone [3]
C[C@@H]1[C@H](O)[C@@H](C)/C=C/C=C/C=C/C=C/C=C/C=C/C=C/[C@H](O[C@@H]2O[C@H](C)[C@@H](O)[C@H](N)[C@@H]2O)C[C@@H]2O[C@](O)(C[C@@H](O)C[C@@H](O)[C@H](O)CC[C@@H](O)C[C@@H](O)CC(=O)O[C@H]1C)C[C@H](O)[C@H]2C(=O)O [AMB, amphotericin B] | > 4.62 | 0.29 | 0.29 |  |  | 
OC(Cn1cncn1)(Cn1cncn1)c1ccc(F)cc1F [FLU, fluconazole] |  | 10 | 10 | 2.5 |  | 
Clc1ccc(COC(Cn2ccnc2)c2ccc(Cl)cc2Cl)c(Cl)c1 (stereo not drawn) [MON, miconazole] |  |  |  | 1.25 | 5 | 5

From US5436253A, “Pyridonecarboxylic acid derivatives and mycotic infections” (Daiichi Pharmaceutical Co., Ltd., priority 1993, dated 1995)
